Data on 20 compounds can be found in PubChem BioAssay AID328 (DTP/NCI, 2004).

“And” between values parts separate entries of the source, which are not always exact repeats. Equal entries are not always repeated. Inconclusive results and toxic doses are left out.

For this assay, the system named is BDF1 mice, P388 leukemia ip, median survival T/C. Briefly: NCI In Vivo Anticancer Drug Screen. Data for tumor model P388 Leukemia (intraperitoneal) in B6D2F1 (BDF1) mice. The settings on record: endpoint: median survival time, higher = longer survival. An outline of the steps:
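T/C = treated-group survival ÷ vehicle-control survival; tumour transplanted into mice before dosing.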

The mark [1] stands for this setting: dose: 50.0 mg/kg/injection, schedule: Q01DX009 (ip), vehicle: saline.
[2] abbreviates: dose: 100.0 mg/kg/injection, schedule: Q01DX009 (ip), vehicle: saline.
Setting [3] is: dose: 200.0 mg/kg/injection, schedule: Q01DX009 (ip), vehicle: saline.
Setting [4] is: dose: 400.0 mg/kg/injection, schedule: Q01DX009 (ip), vehicle: saline.
Where [5] appears, read: dose: 6.25 mg/kg/injection, schedule: Q01DX009 (ip), vehicle: saline.
The mark [6] stands for this setting: dose: 12.5 mg/kg/injection, schedule: Q01DX009 (ip), vehicle: saline.
Setting [7] is: dose: 50.0 mg/kg/injection, schedule: Q01DX009 (ip), vehicle: saline with Tween-80.
Where [8] appears, read: dose: 100.0 mg/kg/injection, schedule: Q01DX009 (ip), vehicle: saline with Tween-80.
Setting [9] is: dose: 200.0 mg/kg/injection, schedule: Q01DX009 (ip), vehicle: saline with Tween-80.
[10] abbreviates: dose: 100.0 mg/kg/injection, schedule: Q01DX009 (ip), vehicle: Klucel (hydroxypropylcellulose) (HPC).
The mark [11] stands for this setting: dose: 200.0 mg/kg/injection, schedule: Q01DX009 (ip), vehicle: Klucel (hydroxypropylcellulose) (HPC).
Where [12] appears, read: dose: 400.0 mg/kg/injection, schedule: Q01DX009 (ip), vehicle: Klucel (hydroxypropylcellulose) (HPC).
Where [13] appears, read: dose: 100.0 mg/kg/injection, schedule: Q04DX003 (ip), vehicle: Klucel (hydroxypropylcellulose) (HPC).
The mark [14] stands for this setting: dose: 200.0 mg/kg/injection, schedule: Q04DX003 (ip), vehicle: Klucel (hydroxypropylcellulose) (HPC).

Take `CC(=O)NCCSC(=O)C(=O)SCCNC(C)=O`: the T/C is 100 % of control (dose: 75.0 mg/kg/injection, schedule: Q01DX009 (ip), vehicle: Klucel (hydroxypropylcellulose) (HPC)) and 95 % of control (dose: 150.0 mg/kg/injection, schedule: Q01DX009 (ip), vehicle: Klucel (hydroxypropylcellulose) (HPC)).
Take `O=C(CCc1ccc(O)cc1)c1c(O)cc(O)cc1OC1OC(CO)C(O)C(O)C1O` (stereo unspecified): the T/C reads like this: (dose: 115.0 mg/kg/injection, schedule: Q01DX010 (ip), vehicle: saline) 100 % of control; (dose: 175.0 mg/kg/injection, schedule: Q01DX010 (ip), vehicle: saline) 109 % of control; (dose: 265.0 mg/kg/injection, schedule: Q01DX010 (ip), vehicle: saline) 100 % of control; (dose: 400.0 mg/kg/injection, schedule: Q01DX010 (ip), vehicle: saline) 95 % of control.
As to `NC(=O)c1nc2c([nH]c1=O)CCCC2`, the T/C is 101 % of control under setting [1]; 100 % of control under setting [2]; 109 % of control (dose: 100.0 mg/kg/injection, schedule: Q04DX003 (ip), vehicle: saline); 110 % of control under setting [3]; 104 % of control (dose: 200.0 mg/kg/injection, schedule: Q04DX003 (ip), vehicle: saline); 93 % of control under setting [4]. Further, the T/C (dose: 400.0 mg/kg/injection, schedule: Q04DX003 (ip), vehicle: saline) was 95 % of control.
As for `O=C(Nc1ccc(Cl)c(Cl)c1)Nc1c(Oc2ccc(Cl)c(Cl)c2)ccc(Cl)c1S(=O)(=O)O`, the T/C is, setting by setting: under setting [5], 118 % of control; under setting [6], 109 % of control; (dose: 25.0 mg/kg/injection, schedule: Q01DX009 (ip), vehicle: saline) 104 % of control; (dose: 35.0 mg/kg/injection, schedule: Q01DX009 (ip), vehicle: saline) 118 % of control; under setting [1], 105 % of control; (dose: 55.0 mg/kg/injection, schedule: Q01DX009 (ip), vehicle: saline) 113 % of control. Also, where the note is “dose: 80.0 mg/kg/injection, schedule: Q01DX009 (ip), vehicle: saline”, the T/C was 111 % of control.
With `N#Cc1ccc(/C=N/NC(N)=S)s1`, the T/C under setting [7] was 97 % of control, the T/C under setting [8] was 102 % of control and the T/C under setting [9] is 97 % of control.
As for `CCCCCOC(=O)c1ccc(OP(=O)(N(C)C)N(C)C)cc1`, the T/C is, setting by setting: under setting [7], 116 % of control; under setting [8], 100 % of control.
For the compound `Nc1cc(N)cc([N+](=O)[O-])c1`, the T/C reads like this: under setting [5], 90 % of control; (dose: 6.25 mg/kg/injection, schedule: Q04DX003 (ip), vehicle: saline) 100 % of control; under setting [6], 86 % of control; (dose: 12.5 mg/kg/injection, schedule: Q04DX003 (ip), vehicle: saline) 104 % of control; (dose: 25.0 mg/kg/injection, schedule: Q04DX003 (ip), vehicle: saline) 100 % of control.
In the case of `Nc1nc(-c2cccnc2)cc2ccccc12`, the T/C (dose: 12.5 mg/kg/injection, schedule: Q04DX003 (ip), vehicle: saline with Tween-80) was 106 % of control and the T/C (dose: 25.0 mg/kg/injection, schedule: Q04DX003 (ip), vehicle: saline with Tween-80) is 91 % of control.
Consider `S=c1nc[nH]c2c1ccc1[nH]cnc12`, for which the T/C reads like this: (dose: 12.5 mg/kg/injection, schedule: Q01DX005 (ip), vehicle: saline with Tween-80) 99 % of control; (dose: 25.0 mg/kg/injection, schedule: Q01DX005 (ip), vehicle: saline with Tween-80) 100 % of control; (dose: 50.0 mg/kg/injection, schedule: Q01DX005 (ip), vehicle: saline with Tween-80) 99 % of control and 107 % of control; (dose: 100.0 mg/kg/injection, schedule: Q01DX005 (ip), vehicle: saline with Tween-80) 90 % of control; (dose: 200.0 mg/kg/injection, schedule: Q01DX005 (ip), vehicle: saline with Tween-80) 104 % of control.
In the case of `O=C1C=CC(=O)N1Cc1ccco1`, the T/C is 100 % of control under setting [1]; 91 % of control and 95 % of control under setting [2]; 100 % of control under setting [3]; 91 % of control under setting [4].
In the case of `CC(C)=CCC/C(C)=C/COC(=O)Cc1ccccc1`, the T/C under setting [8] was 104 % of control; the T/C (dose: 100.0 mg/kg/injection, schedule: Q04DX003 (ip), vehicle: saline with Tween-80) is 100 % of control; the T/C under setting [9] is 109 % of control; the T/C (dose: 200.0 mg/kg/injection, schedule: Q04DX003 (ip), vehicle: saline with Tween-80) was 105 % of control; the T/C (dose: 400.0 mg/kg/injection, schedule: Q01DX009 (ip), vehicle: saline with Tween-80) was 118 % of control; the T/C (dose: 400.0 mg/kg/injection, schedule: Q04DX003 (ip), vehicle: saline with Tween-80) is 122 % of control.
`CCCOC(=O)c1ccc([N+](=O)[O-])cc1`: the T/C is 95 % of control under setting [10], 100 % of control under setting [11] and 100 % of control under setting [12].
For the compound `CC[C@H]1CN2CCc3cc(OC)c(OC)cc3[C@@H]2C[C@@H]1C[C@H]1NCCc2c1[nH]c1ccc(OC)cc21`, the T/C runs as follows: (dose: 16.0 mg/kg/injection, schedule: Q04DX003 (ip), vehicle: saline) 183 % of control; (dose: 18.0 mg/kg/injection, schedule: Q04DX003 (ip), vehicle: acid diluted with saline) 166 % of control; (dose: 30.0 mg/kg/injection, schedule: Q04DX003 (ip), vehicle: acid diluted with saline) 150 % of control; (dose: 32.0 mg/kg/injection, schedule: Q04DX003 (ip), vehicle: saline) 186 % of control; (dose: 64.0 mg/kg/injection, schedule: Q04DX003 (ip), vehicle: saline) 102 % of control.
For `O=C(O)C(Cc1cccc(F)c1)NC(=O)C(F)(F)F` (stereo unspecified), the T/C by setting is: (dose: 1.56 mg/kg/injection, schedule: Q01DX009 (ip), vehicle: saline) 105 % of control; (dose: 3.13 mg/kg/injection, schedule: Q01DX009 (ip), vehicle: saline) 96 % of control; under setting [5], 104 % of control.
In the case of `CC(=O)Nc1ccccc1F`, the T/C under setting [10] is 100 % of control; the T/C under setting [13] is 87 % of control; the T/C under setting [11] was 91 % of control; the T/C under setting [14] is 104 % of control; the T/C under setting [12] is 100 % of control.
In the case of `O=C(Nc1ccc([N+](=O)[O-])cc1)Nc1ccc([N+](=O)[O-])cc1`, the T/C is, setting by setting: (dose: 50.0 mg/kg/injection, schedule: Q04DX003 (ip), vehicle: saline sonified) 86 % of control; (dose: 100.0 mg/kg/injection, schedule: Q04DX003 (ip), vehicle: saline sonified) 86 % of control; (dose: 200.0 mg/kg/injection, schedule: Q04DX003 (ip), vehicle: saline sonified) 90 % of control.
For `CC(=O)OCC1OC(n2cc(C(F)(F)F)c(=O)[nH]c2=O)CC1OC(C)=O` (stereo unspecified), the T/C (dose: 62.5 mg/kg/injection, schedule: Q01DX009 (ip), vehicle: Klucel (hydroxypropylcellulose) (HPC)) is 95 % of control; the T/C under setting [10] is 100 % of control; the T/C (dose: 125.0 mg/kg/injection, schedule: Q01DX009 (ip), vehicle: Klucel (hydroxypropylcellulose) (HPC)) is 109 % of control; the T/C under setting [11] is 100 % of control; the T/C (dose: 250.0 mg/kg/injection, schedule: Q01DX009 (ip), vehicle: Klucel (hydroxypropylcellulose) (HPC)) is 90 % of control; the T/C under setting [12] is 105 % of control. The T/C (dose: 500.0 mg/kg/injection, schedule: Q01DX009 (ip), vehicle: Klucel (hydroxypropylcellulose) (HPC)) is 109 % of control.
Consider `CCCCC/C=C/c1c(C)[nH]c2ccccc2c1=O`, for which the T/C reads like this: under setting [13], 95 % of control; under setting [14], 95 % of control; (dose: 400.0 mg/kg/injection, schedule: Q04DX003 (ip), vehicle: Klucel (hydroxypropylcellulose) (HPC)) 113 % of control.
For the compound `COn1nnc2c([N+](=O)[O-])cccc21`, the T/C under setting [7] is 109 % of control.
Take `CC(=O)[O][Hg][CH]1CCC2OC1CC[CH]2[Hg][O]C(C)=O` (stereo unspecified): the T/C is, setting by setting: (dose: 1.56 mg/kg/injection, schedule: Q01DX009 (ip), vehicle: saline with Tween-80) 101 % of control; (dose: 3.13 mg/kg/injection, schedule: Q01DX009 (ip), vehicle: saline with Tween-80) 113 % of control; (dose: 6.25 mg/kg/injection, schedule: Q01DX009 (ip), vehicle: saline with Tween-80) 111 % of control; (dose: 12.5 mg/kg/injection, schedule: Q01DX009 (ip), vehicle: saline with Tween-80) 104 % of control.
